Where a name gives a salt, the structure may show the parent alone. Read-outs that look alike come from different tables or passages of the source.
What was measured:
[1] = test system: MM.1S human multiple myeloma SCID mouse transplanted tumor; experiment: Pharmacodynamic test, SCID mouse transplanted tumor model; type: in vivo; conditions: 0.0166 mmol/kg intragastric; for Average tumor relative volume RVT5 / Average tumor relative volume RVT8 / Average tumor relative volume RVT12 / Average tumor relative volume RVT15 / Average tumor relative volume RVT18: twice a week; for Average tumor relative volume RVT5 / Average tumor relative volume RVT8 / Average tumor relative volume RVT12 / Average tumor relative volume RVT15 / Average tumor relative volume RVT18 / Tumor weight (g): X ± SD; for Tumor weight (g): after the 18th day
Procedure: In the experiment, a SCID mouse transplanted tumor model of a human multiple myeloma cell line MM.1S was used. Specific modeling steps were as follows: frozen MM.1S cells were resuscitated and cultured in vitro according to a routine, and the cells were collected in a logarithmic growth phase, and diluted with PBS to form a tumor cell suspension with a concentration of 5×10^7/ml. […] About 1 week to 2 weeks after injection, the mass was palpable in axillary, and in vivo passage was performed when a tumor volume was larger than 500 mm^3. After the mouse was killed by a neck pulling method, a body surface was disinfected, skin was cut open, aseptic operation was performed, a tumor tissue was peeled off from an axillary subcutaneous tissue, a fibrous capsule was removed, and the tumor was taken out. The tumor was washed clean in normal saline, and then cut, and after removing the central necrotic part, the tumor tissue with good growth, reddish color and fish flesh shape was selected, then was cut into 1 mm×1 mm×1 mm small pieces, and placed in normal saline for later use. The cut tumor was placed in a mouth of a No. 18 trocar, iodized cotton was used to disinfect the side of the armpit close to the back of the mouse, and local inoculation was performed. The transplanted tumor used in the test was the 4th generation of in vivo passage. When the tumor volume of most SCID mice of in vivo passage was larger than 100 mm^3, the tumor volume was measured and calculated, and the mice were randomly grouped according to the tumor volume.
The administration mode was intragastric administration through mouth, with an administration volume of 10 ml/kg. The model control group was given the same volume of solvent intragastrically. The mice were all intragastrically administrated through mouth twice a week for a total of 5 times, i.e., the mice were administrated at the 1st, 5th, 8th, 12th and 15th days of the experiment, with a duration of 18 days.
Doses of different tested samples were equimolar, with a specific dose of 0.0166 mmol/kg; and the model control group was only given normal saline. The medicines were 8b and 8l, as well as Ixazomib Citrate (MLN9708) and Ixazomib (MLN2238).
On the 5th, 8th, 12th, 15th and 18th days after administration, a short diameter (a) and a long diameter (b) of the tumor of each mouse were measured with a vernier caliper, and the tumor volume was calculated according to a formula (a^2×b)/2. A relative tumor volume (RTV) was calculated based on the tumor volume measured and calculated, RTV=Vt/V0. V0 was the tumor volume at random grouping (i.e., d0) and Vt was the tumor volume at each measurement (i.e., dn). A relative tumor proliferation rate of an anti-tumor activity evaluation index was calculated according to the following formula: relative tumor proliferation rate T/C (%): […]
(Note: TRTV was a RTV of the treatment group; and CRTV was a RTV of the model control group. An evaluation standard of a curative effect was T/C %≤40%, and the medicine was effective when P<0.05 after statistical treatment).
After weighing and measuring the tumor on the 18th day, all animals were sacrificed, and the tumor was taken and weighed.

[2] = test system: SD rats; conditions: for maximum tolerance dose: female rats, single intragastric dose
Excerpt: The test was a single-dose toxicity test of SD rats by intragastric administration through mouth.

[3] = test system: MM.1S (human multiple myeloma cell); experiment: In vitro activity test (CCK-8 cell growth inhibition); type: cell-based; conditions: MM1.S, 48 hours incubation, read-out: MM.IS cell GI50 (μM) value
Procedure: (§1) Cells RPMI-8226 (human multiple myeloma cell) and MM.1S (human multiple myeloma cell) were cultured in a RPMI 1640 medium containing 10% fetal bovine serum at 37[…] under 5% CO2 to a logarithmic growth phase. The cells were respectively inoculated into a 96-well culture plate in a quantity of 3×10^4/well. After culturing for 24 hours at 37[…] under 5% CO2, a solvent control DMSO (dimethyl sulfoxide) or a tested compound (the tested compound taken 0.3 μM as an initial concentration, was diluted 3 times each time, and was diluted 5 times in total to obtain 6 concentration gradients) dissolved in the DMSO was added into the cells. The tested compound was incubated with the cells for 48 hours at 37[…] under 5% CO2. A CCK-8 reagent was added into each well, and incubated at 37 °C for 2 hours according to a reagent specification, and an optical density value of each well was read at a wavelength of 450 nm using a spectrophotometer.
(§2) An optical density value of the cells when the medicine acted for 0 hour was set as a Tz value, which represented a value of the cells when the medicine was added. The optical density value of the cells when the solvent control DMSO acted for 48 hours was set as a C value; and the optical density value of the cells when the tested compound acted for 48 hours was set as a Ti value. According to a method proposed by the NIH-NCI (National Institutes of Health-National Cancer Institute) of the United States, a response of the cells to a medicine was calculated: when Ti≥Tz, the response was [(Ti−Tz)/(C−Tz)]×100; and when Ti<Tz, the response was [(Ti−Tz)/Tz]×100. According to the calculation above, a GI50 value (a concentration of the tested compound required when a cell growth inhibition rate was 50%) was calculated by the 4 Parameter Logistic Model in the XLfit software.

[4] = test system: RPMI-8226 (human multiple myeloma cell); experiment: as above; type: cell-based; conditions: 48 hours incubation
Procedure: as §1, §2

[5] = dose 1, 0.001108 mmol/kg single intragastric dose, 6 female rats, 14 days observation
[6] = dose 1, 0.001108 mmol/kg single intragastric dose, 6 male rats, 14 days observation
[7] = dose 2, 0.001662 mmol/kg single intragastric dose, 6 female rats, 14 days observation
[8] = dose 2, 0.001662 mmol/kg single intragastric dose, 6 male rats, 14 days observation
[9] = dose 4, 0.00277 mmol/kg single intragastric dose, 6 female rats, 14 days observation
[10] = dose 4, 0.00277 mmol/kg single intragastric dose, 6 male rats, 14 days observation
[11] = dose 3, 0.002216 mmol/kg single intragastric dose, 6 female rats, 14 days observation
[12] = dose 3, 0.002216 mmol/kg single intragastric dose, 6 male rats, 14 days observation
[13] = female, rat, in vivo, 0.001108 mmol/kg, 14 days
[14] = male, rat, in vivo, 0.001108 mmol/kg, 14 days
[15] = male, rat, in vivo, 0.002216 mmol/kg, 14 days

Structure (SMILES)	Relative tumor proliferation rate T/C(%) ([1]; 5th day)	Average tumor relative volume RVT5 ([1]; 5th day)	Relative tumor proliferation rate T/C(%) ([1]; 8th day)	Average tumor relative volume RVT8 ([1]; 8th day)	Relative tumor proliferation rate T/C(%) ([1]; 12th day)	Average tumor relative volume RVT12 ([1]; 12th day)	Relative tumor proliferation rate T/C(%) ([1]; 15th day)	Average tumor relative volume RVT15 ([1]; 15th day)	Female Suvival [2, 5]	Male Suvival [2, 6]	Female Death [2, 7]	Female Suvival [2, 7]	Male Death [2, 8]	Male Suvival [2, 8]	Female Death [2, 9]	Female Suvival [2, 9]	Male Death [2, 10]	Male Suvival [2, 10]	GI50 [3] [µM]	GI50 [4] [µM]	also measured
CC(C)C[C@H](NC(=O)CNC(=O)c1cc(Cl)ccc1Cl)B(O)O [Ixazomib (MLN2238), Ixazomib]	87.8^★★ %	1.522 ± 0.273^★★	45.44^★ %	1.238 ± 0.841^★▴▴	22.51^★★ %	0.898 ± 0.749^★★▴▴	10.8^★★ %	0.489 ± 0.343^★★▴▴	6	6	2	4	0	6	6	0	0	6	–	–	Relative tumor proliferation rate T/C(%) ([1]; 18th day): 2.43^★★ %; Average tumor relative volume RVT18 ([1]; 18th day): 0.163 ± 0.132^★★▴▴; Tumor weight (g) [1]: 0.374 ± 0.291^★★ g; Female Death [2, 5]: 0; Male Death [2, 6]: 0; maximum tolerance dose [2]: 0.001108 mmol/kg; Female Death ([2]; rat, in vivo): 4; Female Suvival ([2]; rat, in vivo): 2; Male Death ([2]; rat, in vivo): 0; Male Suvival ([2]; rat, in vivo): 6
CC(C)C[C@H](NC(=O)CNC(=O)c1cc(Cl)ccc1Cl)B1OC(=O)C(CC(=O)O)(CC(=O)O)O1 [Ixazomib (MLN9708), Ixazomib Citrate]	82.56^★★ %	1.431 ± 0.452^★★	20.94%	0.571 ± 0.305	6.13^★★ %	0.245 ± 0.123^★★▴▴	4.42^★★ %	0.214 ± 0.133^★★▴▴	6	6	1	5	0	6	6	0	0	6	–	–	Relative tumor proliferation rate T/C(%) ([1]; 18th day): 3.06^★★ %; Average tumor relative volume RVT18 ([1]; 18th day): 0.205 ± 00.151^★★▴▴; Tumor weight (g) [1]: 0.284 ± 0.312^★ g; Female Death [2, 5]: 0; Male Death [2, 6]: 0; maximum tolerance dose [2]: 0.001108 mmol/kg; Female Death ([2]; rat, in vivo): 3; Female Suvival ([2]; rat, in vivo): 3; Male Death ([2]; rat, in vivo): 0; Male Suvival ([2]; rat, in vivo): 6
CC(C)C[C@H](NC(=O)CNC(=O)c1cc(Br)ccc1Cl)B1OCCNCCO1 [compound 8d]	–	–	–	–	–	–	–	–	6	6	2	4	0	6	6	0	0	6	–	–	Female Death [2, 11]: 5; Female Suvival [2, 11]: 1; Male Suvival [2, 12]: 6; Female Death [2, 13]: 0; Male Death [2, 14]: 0; Male Death [2, 15]: 0
CC(C)C[C@H](NC(=O)CNC(=O)c1cc(Cl)ccc1Cl)B1OC(=O)[C@@H](c2ccccc2)O1 [compound 8l, 2-chloro-5-chloro-N-[2-({(1R)-3-methyl-1-[(5R)-4-oxo-5-phenyl-1,3,2-dioxaborolan-2-yl]butyl}amino)-2-oxoethyl]benzamide]	103.30^★★ %	1.791 ± 0.540^★★	63.82^★★ %	1.739 ± 0.783^★★▴	36.37^★★ %	1.451 ± 0.676^★★▴▴	23.24^★★ %	1.127 ± 0.667^★★▴▴	6	6	1	5	0	6	6	0	0	6	–	–	Relative tumor proliferation rate T/C(%) ([1]; 18th day): 8.38^★ %; Average tumor relative volume RVT18 ([1]; 18th day): 0.561 ± 0.468^★★▴▴; Tumor weight (g) [1]: 0.560 ± 0.566^★ g; Female Death [2, 11]: 2; Female Suvival [2, 11]: 4; Male Suvival [2, 12]: 6; maximum tolerance dose [2]: 0.001108 mmol/kg; Female Death [2, 13]: 0; Male Death [2, 14]: 0; Male Death [2, 15]: 0
CC(C)C[C@H](NC(=O)CNC(=O)c1cc(Br)ccc1Cl)B1OC(=O)c2ccccc2O1 [drawing 39]	–	–	–	–	–	–	–	–	–	–	–	–	–	–	–	–	–	–	0.00209	0.00619	–
CC(C)C[C@H](NC(=O)CNC(=O)c1cc(Br)ccc1Cl)B1OC(=O)[C@@H](c2ccccc2)O1 [drawing 40]	–	–	–	–	–	–	–	–	–	–	–	–	–	–	–	–	–	–	0.00275	0.00598	–
CC(C)C[C@H](NC(=O)CNC(=O)c1cc(Br)ccc1Cl)B1OCCNCCO1 [drawing 41]	–	–	–	–	–	–	–	–	–	–	–	–	–	–	–	–	–	–	0.00713	0.00651	–
CC(C)C[C@H](NC(=O)CNC(=O)c1cc(Cl)ccc1Br)B1OCCNCCO1 [drawing 42]	–	–	–	–	–	–	–	–	–	–	–	–	–	–	–	–	–	–	0.00816	0.006	–
CC(C)C[C@H](NC(=O)CNC(=O)c1cc(Cl)ccc1Cl)B1OC(=O)[C@@H](c2ccccc2)O1 [drawing 43]	–	–	–	–	–	–	–	–	–	–	–	–	–	–	–	–	–	–	0.0186	0.0216	–

— patent US11414437B2, “Borate compound, and synthesis method therefor and uses thereof” (CHENGDU ORIGIN BIOTECHNOLOGY LIMITED COMPANY, priority 2017, dated 2022)
